# According to publication PMC12278645, “Design, synthesis, and antitumor activity of novel thioheterocyclic nucleoside derivatives by suppressing the c-MYC pathway” (Acta Pharmaceutica Sinica. B, 2025):
# Tests used:
# HCT116 cells = test: RNA-sequencing analysis; type: cell-based, human; conditions: 48 h
# Method: Total RNA was isolated from the HCT11 cells using Trizol (Invitrogen Life Technologies Corporation, Carlsbad, USA), cDNA synthesis followed by adaptor ligation and enrichment according to the instructions. The purified library products were evaluated using Illumina NovaSeq 6000 (paired-end 150 bp).
# [1] = test system: CT26 colon cancer xenograft; test: CT26 xenograft tumor growth assay; type: in vivo, BALB/c mice
# Method: All animal studies and procedures were approved by the Animal Ethics Committee of College of Chemistry and Chemical Engineering, Henan Normal University, China. CT26 cells (ATCC, Rockville, MD, USA) were used for tumor allograft experiments. […] Mice were injected with CT26 cells (1 × 10^7 per mouse) subcutaneously. The diameter of transplanted mouse tumors was measured with vernier calipers. […] The antitumor activity of the tested compounds was evaluated by measuring the tumor diameter. Tumor diameter and body weight were measured every two days. After 15 days, tumor tissues were surgically removed, weighed, and photographed. The tumor volume (TV) was calculated as in Eq. (1):(1) V=1/2×a×b^2 where a and b represent the length and width, respectively. Samples were used for histology. The tumor growth inhibition rate TGI (%) was calculated with Eq. (2):(2) TGI(%)=(1‒Tw/Cw)×100 where Tw and Cw are the average tumor weight on the 15th day for the treatment group and the model group, respectively.
# [2] = Metabolites in mice (LC-QTOF/MS); type: in vivo, BALB/c mice; conditions: 55 mg/kg, mixed plasma 0-24 h
# Method: SPF BALB/c mice were adaptively fed for one week. In the control group, mice received an intravenous injection of an equal volume of solvent. In the Model group, mice received an intravenous injection of 55 mg/kg of 33a. Following administration at time points of 0, 0.25, 0.5, 1, 2, 4, 8, 12, and 24 h, mixed plasma samples were collected from mice in each group. Subsequently, blood metabolites were detected, identified, and analyzed utilizing LC-QTOF/MS technology.
# The ionization mode is Electrospray Ionization in positive mode (ESI+), with an ion source voltage of 5 kV and a temperature set at 550 °C. The collision energy (CE) is 30 eV. The nebulizing gas, gas1 (nebulizer gas), and gas2 (auxiliary gas) are all nitrogen (N2) with their pressures set to 55 psi. The curtain gas (CUR) pressure is 35 psi. The parent ion scan range for the first-order mass spectrum is m/z […] to 1000, and the daughter ion scan range is m/z 50 to 1000. Dynamic Background Subtraction (DBS) is activated. The software used for data acquisition is Analyst® TF 1.8 software.
compound,measurement,setting,value
CCOC(=O)[C@]1(n2cnc3c(N4CCCCC4)nc(F)nc32)CSC[C@H]1O (racemic) [33a],genes significantly downregulated,HCT116 cells; 0.8 μmol/L,221
same,genes significantly upregulated,HCT116 cells; 0.8 μmol/Lol/L,265
same,TGI,[1]; 20 mg/kg i.p. once a day for 14 days,54.74%
same,IHC of tumor tissue,[1]; 55 and 20 mg/kg,"significantly reduce the expression of tumor proliferation markers Ki67 and PCNA, increase the expression of cleaved caspase-3, and decrease the expression of c-MYC"
same,effect on body weight,"[1]; 55 and 20 mg/kg i.p., 14 days",did not show an obvious toxic effect on body weight
same,tumor growth,"[1]; 55 and 20 mg/kg i.p., 14 days, tumor volume and weight",significant dose-dependent inhibitory effect on tumor growth
same,H&E staining of major organs,"[1]; heart, liver, spleen, lung, kidney",the major organs showed no apparent evidence of injury or abnormality
same,metabolic pathways,[2],hydrolysis of carboxylic acid ester and glucuronidation
